{"source": "patent US20250025439A1", "about": "“DERIVATIVES OF NIFUROXAZIDE FOR USE IN THE TREATMENT OF MITOCHONDRIAL DISORDERS AND NEURODEGENERATIVE DISEASES” (priority 2021, published 2025)", "key": {"[1]": {"target": "STAT3 (Homo sapiens, UniProt P40763)", "sequence (P40763 whole entry, species assumed)": "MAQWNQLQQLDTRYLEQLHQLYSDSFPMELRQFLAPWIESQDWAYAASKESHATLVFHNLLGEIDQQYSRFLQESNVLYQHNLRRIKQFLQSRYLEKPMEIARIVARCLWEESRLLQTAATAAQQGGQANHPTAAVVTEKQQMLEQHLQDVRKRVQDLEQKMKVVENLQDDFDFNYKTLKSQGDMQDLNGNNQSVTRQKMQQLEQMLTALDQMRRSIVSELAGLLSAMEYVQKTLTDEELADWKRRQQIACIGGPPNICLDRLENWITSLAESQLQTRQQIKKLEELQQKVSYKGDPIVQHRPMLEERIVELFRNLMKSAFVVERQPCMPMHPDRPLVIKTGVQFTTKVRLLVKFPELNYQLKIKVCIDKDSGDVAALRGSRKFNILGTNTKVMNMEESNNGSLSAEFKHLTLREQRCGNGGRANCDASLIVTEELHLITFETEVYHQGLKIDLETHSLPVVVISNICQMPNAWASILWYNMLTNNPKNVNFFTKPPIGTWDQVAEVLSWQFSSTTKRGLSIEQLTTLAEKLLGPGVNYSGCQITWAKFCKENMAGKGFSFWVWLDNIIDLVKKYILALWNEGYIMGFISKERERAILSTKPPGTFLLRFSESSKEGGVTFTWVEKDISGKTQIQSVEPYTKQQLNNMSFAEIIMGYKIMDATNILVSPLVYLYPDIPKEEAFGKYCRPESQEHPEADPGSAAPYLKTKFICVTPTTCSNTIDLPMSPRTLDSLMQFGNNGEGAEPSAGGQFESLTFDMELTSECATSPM", "details": "cited from earlier work"}, "[2]": {"tested_on": "patient fibroblasts", "experiment": "Electron microscopy of mitochondrial morphology in fibroblasts", "assay_type": "cell-based, human", "details": "72 h after treatment", "method": "Cells were seeded on 24 wells/plate, fixed with 1.6% glutaraldehyde in 0.1 M cacodylate buffer (pH 7.4) for 2 hours, rinsed and postfixed in 1% osmium tetroxide and 1% potassium ferrocyanide in 0.1 M cacodylate buffer before to processed for ultrastructure as previously described (Bannwarth et al., Brain, 2014, 137, 2329-2345). The protocol for contrasting sections was slightly modified, using a 5% Lanthanide salt solution (a mixture of Gadolinium acetate and Samarium acetate) for 7 minutes instead of uranium acetate. The cells were examined under a JEOL 1400 transmission electron microscope. The ultrastructure of mitochondria was classified in three categories. Normal: the mitochondria have numerous, parallel and well organized cristae. Intermediary: the mitochondria have less cristae, they show few round or swollen cristae or have a mild disorganisation. Abnormal: the mitochondria have swollen, disorganized or no cristae. More than 100 mitochondria were classified per condition. Nifuroxazide (46494-100MG Sigma) was resuspended in DMSO at 50 mM and stocked at −20° C. For each treatment, the Nifuroxazide was diluted in complete medium (Dulbecco's Modified Eagle Medium supplemented with 10% FBS, penicillin (100 U/mL) and streptomycin (0.1 mg/mL)) at the desired concentration. […] 72 h hours after treatment, the cells were analysed."}, "[3]": {"tested_on": "OPA1 and Mitofilin", "experiment": "In situ proximity ligation assay OPA1/IMMT", "assay_type": "cell-based, human", "details": "patient fibroblasts, NFX 5 μM", "method": "(§1) Fibroblasts were seeded in 16-well Lab-Tek chambers slides (Nunc). For mitochondrial staining, cells were incubated in a 100 nM solution of MitoTracker Red CMXRos (Invitrogen) for 15 min. Cells were fixed with PFA 4% for 20 min at 37° C. and permeabilised with 2% Triton X-100 for 10 min. Then coverslips were saturated with 5% BSA for 45 min at RT. All antibodies were diluted with PBS-BSA 5%. Fibroblasts were incubated in the presence of convenient couple of primary antibodies for 1 h at RT. After PBS washes, incubation with appropriate PLA probe (PLA probe anti rabbit MINUS, PLA probe anti mouse PLUS), hybridization, ligation and amplification were done using the DuoLink In Situ Detection Reagents Green (Olink Biosciences) following manufacturer's instructions. Finally, the samples were mounted on glass slides using Prolong Gold Antifade Reagent (Molecular Probes). Images were captured with a ZEISS LSM 880 confocal laser-scanning microscope and analyzed using Huygens Essential Software™ (Scientific Volume Imaging). Data are represented as mean±SEM. Negative control experiments (with one antibody omitted) were performed in parallel and checked to result in the absence of PLA signal (FIG. 1)."}, "[4]": {"tested_on": "STAT3", "experiment": "Western blot of STAT3 expression after treatment", "assay_type": "cell-based, human", "details": "patient and control fibroblasts, NFX 1 or 5 μM, 72 h", "method": "The concentration of proteins was determined using the Pierce BCA assay kit (Thermo Fisher Scientific). 20 μg of total protein extracts were separated on acrylamide-SDS gels and transferred to PVDF membranes (Millipore). Signals were detected using a chemoluminescence system (Immobilon Western HRP Chemilumiscent substrates, Millipore). ImageJ was used to quantify protein signals. Nifuroxazide (46494-100MG Sigma) was resuspended in DMSO at 50 mM and stocked at −20° C. For each treatment, the Nifuroxazide was diluted in complete medium (Dulbecco's Modified Eagle Medium supplemented with 10% FBS, penicillin (100 U/mL) and streptomycin (0.1 mg/mL)) at the desired concentration. The cell medium was discarded and replaced by the medium with Nifuroxazide. 72 h hours after treatment, the cells were analysed."}, "[5]": {"tested_on": "control and patient fibroblasts", "experiment": "Toxicity assay (Trypan blue cell counting after 72 h)", "assay_type": "cell-based, human", "details": "Homo sapiens, Fibroblast, control and patient fibroblasts, living cells vs DMSO, read-out: calculated IC50 (toxicity)", "method": "Skin punches were obtained from patients after informed consent. Primary fibroblast cultures were established using standard procedures in RPMI supplemented with 10% Fetal Bovine Serum (FBS), 45 μg/mL uridine and 275 μg/mL sodium pyruvate (Bannwarth et al., 2014). Primary fibroblast cultures were maintained in Dulbecco's Modified Eagle Medium supplemented with 10% FBS, penicillin (100 U/mL) and streptomycin (0.1 mg/mL) at 37° C. in a humidified incubator with 5% CO2. Cells were plated in six well plates in glucose medium (DMEM, 10% FBS, penicillin (100 U/mL) and streptomycin (0.1 mg/mL)) and incubated at 37° C. in a humidified incubator with 5% CO2. After 24h, one well was treated with DMSO, the other wells were treated with rising concentrations of […] or NFO. 72 h after the treatment, the cells were trypsinized, stained with Trypan blue and counted with a Malassez cell. The ratio of each concentration compared to the DMSO control has been plotted and the IC50 has been calculated using the nonlinear regression on the software GraphpadPrism 8."}, "[6]": {"tested_on": "Mic60 and Miro1", "experiment": "Proximity ligation assay Mic60/Miro1", "assay_type": "cell-based, human", "details": "patient fibroblasts, NFX 5 μM", "method": "as §1, with “1). […]” for “1).”"}}, "data": [{"smiles": "O=C(N/N=C/c1ccc([N+](=O)[O-])o1)c1ccc(O)cc1", "note": "[NFX, (E)-4-hydroxy-N′-((5-nitrofuran-2-yl)methylene)benzohydrazide]", "values": [{"measurement": "inhibition of STAT3 tyrosine phosphorylation", "setting": "[1]", "result": "potent inhibitor"}, {"measurement": "mitochondrial morphology and cristae shape (EM)", "setting": "[2]", "result": "improved"}, {"measurement": "number of PLA spots OPA1/Mitofilin", "setting": "[3]", "result": "significant increase"}, {"measurement": "STAT3 protein level", "setting": "[4]", "result": "dose-dependent decrease"}, {"measurement": "pSTAT3Y705 protein level", "setting": "[4]", "result": "dose-dependent decrease"}, {"measurement": "IC50", "setting": "[5]", "result": "~10", "unit": "µM"}, {"measurement": "number of PLA spots Mic60/Miro1", "setting": "[6]", "result": "significant increase"}]}]}
